Earlier results, collected in patent publication US20090214511A1, “DIGESTIBLE COMPOSITIONS OF INULIN FOR MANAGING BLOOD GLUCOSE LEVELS” (priority 2008, published 2009).

## CN(C)C(=N)N=C(N)N [metformin]
Type 2 diabetes, initial choice of anti-diabetic drug, 5 years
  cumulative incidence of monotherapy failure at 5 years: 21%

## CN(CCOc1ccc(CC2SC(=O)NC2=O)cc1)c1ccccn1 (centres unmarked) [rosiglitazone]
Randomized controlled trial, users vs non-users
  weight gain and edema versus non-users: more weight gain and edema
